In US20140275078A1, “COMPOSITIONS AND METHODS FOR TREATING CANCER USING PI3KB INHIBITOR AND MAPK PATHWAY INHIBITOR, INCLUDING MEK AND RAF INHIBITORS” (SANOFI, priority 2011, published 2014):
Values joined by “and” are separate entries in the source; they are usually repeats but may differ in a detail not shown here. Identical values can stand only once. Like-named read-outs stand apart in the source and are kept apart here.

Legend:
[1] = system: human melanoma cell line UACC-62; assay: Cell proliferation (CelltiterGlo, ray design) in UACC-62; format: cell-based; conditions: single agent, 96 hours, 4-parameter logistic model
Method: The human melanoma UACC-62 cell line was purchased at NCI (Batch 0503000). The UACC-62 cells were cultured in RPMI1640 medium supplemented with 10% FBS and 2 mM L-Glutamine.
They were diluted in cascade, in DMSO and then diluted 50-fold in culture medium containing 10% serum before being added onto cells with a 20-fold dilution factor. The final concentrations tested were defined by Ray design described in Table 1. The DMSO concentration was 0.1% in controls and in all treated wells.
(§1) UACC-62 cells were plated at 2500 cells/well in 96-well plates in appropriate culture medium and incubated 6 hours at 37° C., 5% CO2. […] Cell growth was evaluated by measuring intracellular ATP using CelltiterGlo® reagent (Promega) according to the manufacturer's protocol. Briefly, Cell Titer Glo was added to each plate, incubated for 1 hour then luminescent signal was read on the MicroBeta Luminescent plate reader. All plates were run in duplicate. All assays were run at least in duplicate.
(§2) Inhibition of cell growth was estimated after treatment with compound or combination of compounds for four days and comparing the signal to cells treated with vehicle (DMSO).
Growth inhibition percentage (GI %) was calculated according to the following equation: GI %=100*(1−((X−BG)/(TC−BG)) […]

[2] = system: human melanoma cell line WM-266-4; assay: Cell proliferation (CelltiterGlo, ray design) in WM-266-4; format: cell-based; conditions: single agent, 96 hours, 4-parameter logistic model
Method: as §1, §2
Growth inhibition percentage (GI %) was calculated according to the following equation: GI %=100*(1−((X−BG)/(TC−BG))
A global non linear mixed model using NLMIXED procedure of SAS V9.2 was applied to fit simultaneously the concentration-responses curves for each ray. The combination index
of each ray i and its 95% confidence interval was then estimated using the following equation: […]
where IC40A and IC40B are the concentrations of compound A and compound B necessary to obtain 40% of inhibition for each compound alone and CA and CB are the concentrations of compound A and compound B in the mixture necessary to obtain 40% of inhibition.
The human melanoma WM-266-4 cell line was purchased at ATCC (Ref number CRL-1676 Batch 3272826). The WM-266-4 cells were cultured in RPMI1640 medium supplemented with 10% FBS and 2 mM L-Glutamine.
Materials and Methods are the same described in example 1.
The human melanoma WM-266-4 cell line was purchased at ATCC (Ref number CRL-1676 Batch 3272826). The WM-266.4 cells were cultured in RPMI1640 medium supplemented with 10% FBS and 2 mM L-Glutamine.

[3] = system: human melanoma tumors WM-266.4; conditions: for tolerability (body weight loss): Cpd (2a) 25 and 10 mg/kg qd, Cpd (2b) 100 and 50 mg/kg qd, single agents or combination
[4] = system: human primary colon tumors CR-IGR-014P; conditions: Ex. 8, Cpd (I) 150 mg/kg bid
[5] = Chemical stability of dosing stock solution; conditions: oral dosing formulation of each compound; in the dark at RT
[6] = system: human melanoma tumors UACC-62; assay: Antitumor activity against subcutaneous UACC-62 tumors in SCID female mice; conditions: for tolerability (body weight loss): single agents or combination
[7] = target: PI3K gamma (Homo sapiens, UniProt P48736); conditions: cited from earlier work
[8] = Ex. 7, PO d21-31, Cpd (I) 150 mg/kg bid, Cpd (2a) 10 mg/kg qd, alone or combined
[9] = PO d20-36, Cpd (2a) 10 mg/kg qd, alone or combined
[10] = Ex. 5, PO d11-22, Cpd (I) 150 mg/kg bid, Cpd (2a) 10 mg/kg qd, alone or combined
[11] = Ex. 7, Cpd (I) 150 mg/kg bid, Cpd (2b) 50 mg/kg qd, alone or combined, Day 24
[12] = Ex. 7, Cpd (I) 150 mg/kg bid, Cpd (2b) 50 mg/kg qd, alone or combined, Day 27
[13] = Ex. 7, Cpd (I) 150 mg/kg bid, Cpd (2b) 50 mg/kg qd, alone or combined, Day 29
[14] = Ex. 7, Cpd (I) 150 mg/kg bid, Cpd (2b) 50 mg/kg qd, alone or combined, Day 31
[15] = Ex. 7, Cpd (I) 150 mg/kg bid, Cpd (2b) 50 mg/kg qd, alone or combined, Global
[16] = Ex. 7, Cpd (I) 150 mg/kg bid, Cpd (2b) 100 mg/kg qd, alone or combined, Day 24
[17] = Ex. 7, Cpd (I) 150 mg/kg bid, Cpd (2b) 100 mg/kg qd, alone or combined, Day 27
[18] = Ex. 7, Cpd (I) 150 mg/kg bid, Cpd (2b) 100 mg/kg qd, alone or combined, Day 29
[19] = Ex. 7, Cpd (I) 150 mg/kg bid, Cpd (2b) 100 mg/kg qd, alone or combined, Day 31
[20] = Ex. 7, Cpd (I) 150 mg/kg bid, Cpd (2b) 100 mg/kg qd, alone or combined, Global
[21] = Ex. 6, Cpd (I) 151.5 mg/kg bid, Cpd (2b) 50 mg/kg qd, alone or combined, Day 11
[22] = Ex. 6, Cpd (I) 151.5 mg/kg bid, Cpd (2b) 50 mg/kg qd, alone or combined, Day 13
[23] = Ex. 6, Cpd (I) 151.5 mg/kg bid, Cpd (2b) 50 mg/kg qd, alone or combined, Day 15
[24] = Ex. 6, Cpd (I) 151.5 mg/kg bid, Cpd (2b) 50 mg/kg qd, alone or combined, Global
[25] = Ex. 6, Cpd (I) 151.5 mg/kg bid, Cpd (2b) 100 mg/kg qd, alone or combined, Day 11
[26] = Ex. 6, Cpd (I) 151.5 mg/kg bid, Cpd (2b) 100 mg/kg qd, alone or combined, Day 13
[27] = Ex. 6, Cpd (I) 151.5 mg/kg bid, Cpd (2b) 100 mg/kg qd, alone or combined, Day 15
[28] = Ex. 6, Cpd (I) 151.5 mg/kg bid, Cpd (2b) 100 mg/kg qd, alone or combined, Global
[29] = Ex. 6, PO d8-15, Cpd (I) 151.5 mg/kg bid, Cpd (2b) 100 mg/kg qd, alone or combined

Sequence of PI3K gamma (P48736 whole entry): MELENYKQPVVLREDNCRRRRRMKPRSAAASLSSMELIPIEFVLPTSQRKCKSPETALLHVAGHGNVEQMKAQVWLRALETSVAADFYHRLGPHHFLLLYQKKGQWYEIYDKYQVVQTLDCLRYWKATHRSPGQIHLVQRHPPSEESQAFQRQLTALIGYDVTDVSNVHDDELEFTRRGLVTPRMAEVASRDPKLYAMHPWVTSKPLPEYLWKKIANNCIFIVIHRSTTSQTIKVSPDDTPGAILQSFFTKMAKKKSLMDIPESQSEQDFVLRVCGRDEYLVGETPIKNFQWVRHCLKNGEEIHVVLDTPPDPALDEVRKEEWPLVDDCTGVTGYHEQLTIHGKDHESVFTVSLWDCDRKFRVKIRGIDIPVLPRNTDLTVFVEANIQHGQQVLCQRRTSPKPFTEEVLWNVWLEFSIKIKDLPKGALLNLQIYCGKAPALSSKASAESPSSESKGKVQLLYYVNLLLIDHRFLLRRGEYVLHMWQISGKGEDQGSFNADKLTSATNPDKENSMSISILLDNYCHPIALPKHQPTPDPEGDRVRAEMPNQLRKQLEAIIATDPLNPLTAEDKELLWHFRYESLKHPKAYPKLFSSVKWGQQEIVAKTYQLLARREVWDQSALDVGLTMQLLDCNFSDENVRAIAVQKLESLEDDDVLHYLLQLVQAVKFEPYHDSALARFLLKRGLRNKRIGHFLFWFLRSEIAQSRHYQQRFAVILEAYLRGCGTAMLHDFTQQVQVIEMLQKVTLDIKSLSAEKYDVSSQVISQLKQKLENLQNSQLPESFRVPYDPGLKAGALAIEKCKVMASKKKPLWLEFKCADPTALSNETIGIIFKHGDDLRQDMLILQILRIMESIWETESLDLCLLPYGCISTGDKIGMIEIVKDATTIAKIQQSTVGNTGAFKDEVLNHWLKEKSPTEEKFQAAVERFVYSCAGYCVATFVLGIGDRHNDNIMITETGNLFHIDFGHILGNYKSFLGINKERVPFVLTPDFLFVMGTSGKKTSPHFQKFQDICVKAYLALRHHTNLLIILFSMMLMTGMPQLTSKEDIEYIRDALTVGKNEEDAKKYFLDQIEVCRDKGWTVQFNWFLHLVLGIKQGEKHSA

| SMILES | Absolute IC40 ([2]; example 3) | tolerability (body weight loss) ([3]; Ex. 7, Cpd (I) 150 mg/kg bid) | stock solution chemically stable [5] | Tumor volume changes from baseline: Median (nMad) [3, 11] | Tumor volume changes from baseline: Median (nMad) [3, 12] | Tumor volume changes from baseline: Median (nMad) [3, 13] | Tumor volume changes from baseline: Median (nMad) [3, 14] | Tumor volume changes from baseline: Median (nMad) [3, 15] | Tumor volume changes from baseline: Median (nMad) [3, 16] | Tumor volume changes from baseline: Median (nMad) [3, 17] | Tumor volume changes from baseline: Median (nMad) [3, 18] | Tumor volume changes from baseline: Median (nMad) [3, 19] | Tumor volume changes from baseline: Median (nMad) [3, 20] | Tumor volume changes from baseline: Median (nMad) [6, 21] | Tumor volume changes from baseline: Median (nMad) [6, 22] | Tumor volume changes from baseline: Median (nMad) [6, 23] | Tumor volume changes from baseline: Median (nMad) [6, 24] | Tumor volume changes from baseline: Median (nMad) [6, 25] | Tumor volume changes from baseline: Median (nMad) [6, 26] | Tumor volume changes from baseline: Median (nMad) [6, 27] | also measured |
| --- | --- | --- | --- | --- | --- | --- | --- | --- | --- | --- | --- | --- | --- | --- | --- | --- | --- | --- | --- | --- | --- |
| Cn1cnc2c(F)c(Nc3ccc(Br)cc3Cl)c(C(=O)NOCCO)cc21 [Compound (2a), 1H-Benzimidazole-6-carboxamide, 5-[(4-bromo-2-chlorophenyl)amino]-4-fluoro-N-(2-hydroxyethoxy)-1-methyl] | 33 nM | induced a higher bwl as compared to the control | 7 days | – | – | – | – | – | – | – | – | – | – | – | – | – | – | – | – | – | Absolute IC40 ([1]; example 1): 27 nM; Average body weight change in % per mouse at nadir [3, 8]: −10.5%; Drug death (Day of death) [3, 8]: 0/7; day of nadir [3, 8]: 31 days; ΔT/ΔC % (day 31) [3, 8]: 36%; tolerability (body weight loss) ([4]; Cpd (2a) 25 and 10 mg/kg qd, single agents or combination): well tolerated inducing minimal bwl; Average body weight change in % per mouse at nadir [4, 9]: −4.2%; Drug death (Day of death) [4, 9]: 0/7; day of nadir [4, 9]: 27 days; ΔT/ΔC % (day 36) [4, 9]: 84%; tolerability (body weight loss) ([6]; Ex. 5, Cpd (I) 150 mg/kg bid, Cpd (2a) 25 and 10 mg/kg qd): well tolerated inducing minimal bwl; Average body weight change in % per mouse at nadir [6, 10]: −4.3%; Drug death (Day of death) [6, 10]: 0/7; day of nadir [6, 10]: 21 days; ΔT/ΔC % (day 22) [6, 10]: 35% |
| C[C@H]1Cc2ccccc2N1C(=O)Cc1nc(N2CCOCC2)cc(=O)[nH]1 [Compound (I), 2-{2-[(2S)-2-methyl-2,3-dihydro-1H-indol-1-yl]-2-oxoethyl}-6-(morpholin-4-yl)pyrimidin-4(3H)-one] | 834 nM | – | 7 days | 54 (53.4) | 132 (62.3) | 162 (47.4) | 272 (20.8) | 138 (100.8) | 54 (53.4) | 132 (62.3) | 162 (47.4) | 272 (20.8) | 138 (100.8) | 54 (62.3) | 145 (71.2) | 303 (63.8) | 145 (89) | 54 (62.3) | 145 (71.2) | 303 (63.8) | IC50 [7]: > 10000 nM; Tumor volume changes from baseline: Median (nMad) [6, 28]: 145 (89); Average body weight change in % per mouse at nadir [6, 29]: −2.9%; Drug death (Day of death) [6, 29]: 0/7; day of nadir [6, 29]: 15 days; ΔT/ΔC % (day 15) [6, 29]: 39% |
| CCCS(=O)(=O)Nc1ccc(F)c(C(=O)c2c[nH]c3ncc(-c4ccc(Cl)cc4)cc23)c1F [Compound (2b), 1-Propanesulfonamide, N-[3-[[5-(4-chlorophenyl)-1H-pyrrolo[2,3-b]pyridin-3-yl]carbonyl]-2,4-difluorophenyl]] | – | well tolerated | 7 days | 116 (11.9) | 254 (118.6) | 322 (94.9) | 442 (60.8) | 274 (228.3) | 36 (26.7) | 171 (40)^ | 226 (86)^ | 441 (96.4) | 193.5 (200.2)^ | 62 (16.3) | 157 (132) | 240 (132)^ | 154 (136.4) | 54 (60.8) | 126 (74.1) | 152 (161.6) | Absolute IC40 ([1]; example 2): 18 nM and 17.7 nM; Absolute IC40 ([2]; example 4): 35 nM; ΔT/ΔC % (day 31) ([3]; Ex. 7, PO d21-31, Cpd (I) 150 mg/kg bid, Cpd (2b) 50 mg/kg qd, alone or combined): > 40%; ΔT/ΔC % (day 31) ([3]; Ex. 7, PO d21-31, Cpd (I) 150 mg/kg bid, Cpd (2b) 50 mg/kg qd, alone or combined, listed as Cpd. 2b): 59%; ΔT/ΔC % (day 31) ([3]; Ex. 7, PO d21-31, Cpd (I) 150 mg/kg bid, Cpd (2b) 100 mg/kg qd, alone or combined): > 40%; ΔT/ΔC % (day 31) ([3]; Ex. 7, PO d21-31, Cpd (I) 150 mg/kg bid, Cpd (2b) 100 mg/kg qd, alone or combined, listed as Cpd. 2b): 59%; Average body weight change in % per mouse at nadir ([3]; mouse, in vivo): −6.6 (31) %; Tumor volume changes from baseline: Median (nMad) [6, 28]: 98 (89)^; tolerability (body weight loss) ([6]; Ex. 6, Cpd (I) 151.5 mg/kg bid, Cpd (2b) 100 and 50 mg/kg qd): well tolerated inducing minimal bwl; ΔT/ΔC % (day 15) [6, 29]: 20%; Average body weight change in % per mouse at nadir ([6]; mouse, in vivo): −3.7 (13) % and −1.7 (15) % |
